Legend:
SjGST [1] = molecular target: T1, SjGST (Schistosoma japonicum, UniProt P08515); assay: CDNB conjugation assay; assay type: biochemical; details: aniline up to 20 mM
SjGST [2] = molecular target: T1, SjGST; assay: SjGST-templated acylhydrazone DCL, amplification by HPLC; assay type: binding; details: DCL synthesis in the presence of a large excess of the inhibitor

T1 sequence (P08515 whole entry): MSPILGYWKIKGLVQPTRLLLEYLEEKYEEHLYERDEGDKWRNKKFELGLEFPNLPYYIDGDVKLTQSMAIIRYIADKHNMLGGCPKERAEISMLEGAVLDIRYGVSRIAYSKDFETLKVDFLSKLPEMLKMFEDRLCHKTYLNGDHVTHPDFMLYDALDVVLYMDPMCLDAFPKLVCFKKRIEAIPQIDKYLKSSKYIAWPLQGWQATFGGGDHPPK

effect on DCL component amplification (SjGST [2])	SMILES	SjGST GSH conjugation activity in the presence of the additive (SjGST [1])
–	Nc1ccccc1 [aniline]	retained GSH conjugation activity
completely suppressed	C=C(CC)C(=O)c1ccc(OCC(=O)O)c(Cl)c1Cl [ethacrynic acid]	–

Reference: article PMC2913121 (Nature chemistry, 2010)
